This passage reports IC50 results from EP4667458A1 (Kanaph Therapeutics Inc., priority 2023, dated 2024).

As a reminder, the IC50 is the point on the concentration scale where inhibition reaches its midpoint. A lower IC50 goes with greater potency in that assay.

The assay deals with T1, KRAS^G12C::SOS1 (Homo sapiens, UniProt Q07889).
T1 sequence (Q07889 1-1333): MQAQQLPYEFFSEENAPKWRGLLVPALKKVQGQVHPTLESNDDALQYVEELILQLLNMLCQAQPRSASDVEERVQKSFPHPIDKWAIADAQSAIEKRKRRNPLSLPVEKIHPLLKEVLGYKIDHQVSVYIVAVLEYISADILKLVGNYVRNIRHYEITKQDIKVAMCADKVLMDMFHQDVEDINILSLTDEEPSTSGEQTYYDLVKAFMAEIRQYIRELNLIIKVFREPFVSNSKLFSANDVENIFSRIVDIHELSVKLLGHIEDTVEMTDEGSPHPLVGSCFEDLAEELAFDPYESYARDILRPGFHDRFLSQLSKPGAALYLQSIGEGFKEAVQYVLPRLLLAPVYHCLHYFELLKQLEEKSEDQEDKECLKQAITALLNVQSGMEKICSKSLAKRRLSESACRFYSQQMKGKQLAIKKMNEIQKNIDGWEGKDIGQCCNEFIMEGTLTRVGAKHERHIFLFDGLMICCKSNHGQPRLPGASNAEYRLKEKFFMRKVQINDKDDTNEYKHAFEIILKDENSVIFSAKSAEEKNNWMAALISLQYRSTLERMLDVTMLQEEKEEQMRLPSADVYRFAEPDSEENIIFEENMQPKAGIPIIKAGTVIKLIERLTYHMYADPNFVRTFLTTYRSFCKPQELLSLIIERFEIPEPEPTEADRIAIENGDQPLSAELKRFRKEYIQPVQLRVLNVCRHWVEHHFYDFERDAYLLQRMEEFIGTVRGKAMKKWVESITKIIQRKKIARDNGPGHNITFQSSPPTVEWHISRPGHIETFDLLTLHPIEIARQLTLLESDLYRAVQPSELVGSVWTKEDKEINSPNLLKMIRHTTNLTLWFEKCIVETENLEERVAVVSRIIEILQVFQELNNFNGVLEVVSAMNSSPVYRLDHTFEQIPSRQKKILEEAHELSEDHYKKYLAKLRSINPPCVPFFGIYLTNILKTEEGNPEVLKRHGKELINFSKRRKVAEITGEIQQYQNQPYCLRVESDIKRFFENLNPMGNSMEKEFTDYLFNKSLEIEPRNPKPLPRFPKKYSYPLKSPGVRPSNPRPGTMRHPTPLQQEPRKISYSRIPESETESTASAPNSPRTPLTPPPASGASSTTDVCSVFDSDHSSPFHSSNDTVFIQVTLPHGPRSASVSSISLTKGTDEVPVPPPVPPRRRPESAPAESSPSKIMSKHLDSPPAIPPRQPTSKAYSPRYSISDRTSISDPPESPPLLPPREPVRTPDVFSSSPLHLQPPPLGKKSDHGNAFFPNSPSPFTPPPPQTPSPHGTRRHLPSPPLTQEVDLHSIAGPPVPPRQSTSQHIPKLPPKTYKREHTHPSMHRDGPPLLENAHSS
Description: KRAS G12C::SOS1 protein-protein interaction (PPI) inhibition assay (HTRF binding kit). (In general: Time-resolved FRET reads energy transfer from a long-lived donor to a nearby acceptor.)
For `CC(=O)Nc1cc(=O)n(-c2ccccc2)nc1C(=O)N[C@H](C)c1cc(N)cc(C(F)(F)F)c1` [Example 313, 4-acetamido-N-[(1R)-1-[3-amino-5-(trifluoromethyl)phenyl]ethyl]-6-oxo-1-phenyl-pyridazine-3-carboxamide], the half-inhibitory concentration (IC50) is less than 1 µM.

In the case of `C[C@@H](NC(=O)c1nn(-c2ccccc2F)c(=O)cc1N)c1cccc(C(F)(F)CO)c1F` [Example 379, 4-amino-N-[(1R)-1-[3-(1,1-difluoro-2-hydroxy-ethyl)-2-fluorophenyl]ethyl]-1-(2-fluorophenyl)-6-oxo-pyridazine-3-carboxamide], the 50% inhibitory concentration (IC50) is less than 1 µM.

`CNCc1ccccc1-c1ccc([C@@H](C)NC(=O)c2ccc(=O)n(-c3ccccc3F)n2)s1` [Example 298, 1-(2-fluorophenyl)-N-[(1R)-1-[5-[2-(methylaminomethyl)phenyl]-2-thienyl]ethyl]-6-oxo-pyridazine-3-carboxamide]: the concentration for half-maximal inhibition (IC50) was less than 1 µM.

`C[C@@H](NC(=O)c1ccc(=O)n(-c2cccnc2F)n1)c1cc(N)cc(C(F)(F)F)c1` [Example 360, N-[(1R)-1-[3-amino-5-(trifluoromethyl)phenyl]ethyl]-1-(2-fluoro-3-pyridyl)-6-oxo-pyridazine-3-carboxamide] came in with a half-inhibitory concentration (IC50) of less than 1 µM. On to `C[C@@H](NC(=O)c1ccc(=O)n(-c2cccc(-c3ccn(C(F)F)n3)c2)n1)c1cc(N)cc(C(F)(F)F)c1` [Example 344, N-[(1R)-1-[3-amino-5-(trifluoromethyl)phenyl]ethyl]-1-[3-[1-(difluoromethyl)pyrazol-3-yl]phenyl]-6-oxo-pyridazine-3-carboxamide], for which the 50% inhibitory concentration (IC50) was less than 1 µM. The result for `C[C@@H](NC(=O)c1ccc(=O)n(-c2cccc(-c3ncnn3C)c2)c1)c1cc(N)cc(C(F)(F)F)c1` [Example 318, N-[(1R)-1-[3-amino-5-(trifluoromethyl)phenyl]ethyl]-1-[3-(2-methyl-1,2,4-triazol-3-yl)phenyl]-6-oxo-pyridine-3-carboxamide] reads less than 1 µM; that for `CCNC(=O)c1cccc(-n2nc(C(=O)N[C@H](C)c3cc(N)cc(C(F)(F)F)c3)ccc2=O)c1F` [Example 234, (R)-N-(1-(3-amino-5-(trifluoromethyl)phenyl)ethyl)-1-(3-(ethylcarbamoyl)-2-fluorophenyl)-6-oxo-1,6-dihydropyridazine-3-carboxamide], less than 1 µM. The same measure for `CNCc1ccc(Cl)cc1-c1ccc([C@@H](C)NC(=O)c2ccc(=O)n(-c3ccccc3F)c2)s1` [Example 283, N-[(1R)-1-[5-[5-chloro-2-(methylaminomethyl)phenyl]-2-thienyl]ethyl]-1-(2-fluorophenyl)-6-oxo-pyridine-3-carboxamide]: less than 1 µM; for `C[C@@H](NC(=O)c1ccc(=O)n(-c2cccc(-c3cnn(C)c3)c2)n1)c1cc(N)cc(C(F)(F)F)c1` [Example 334, N-[(1R)-1-[3-amino-5-(trifluoromethyl)phenyl]ethyl]-1-[3-(1-methylpyrazol-4-yl)phenyl]-6-oxo-pyridazine-3-carboxamide]: less than 1 µM.

`[2H]C([2H])([2H])n1nncc1-c1cccc(-n2nc(C(=O)N[C@H](C)c3cc(N)cc(C(F)(F)F)c3)ccc2=O)c1` [Example 237, N-[(1R)-1-[3-amino-5-(trifluoromethyl)phenyl]ethyl]-1-[3-(3-(trideuteriomethyl)triazol-4-yl)phenyl]-6-oxo-pyridazine-3-carboxamide] had a half-maximal inhibitory concentration (IC50) of less than 1 µM. `CNCc1ccccc1-c1ccc([C@@H](C)NC(=O)c2ccc(=O)n(-c3cccnc3F)n2)s1` [Example 412, 1-(2-fluoropyridin-3-yl)-N-[(1R)-1-(5-{2-[(methylamino)methyl]phenyl}thiophen-2-yl)ethyl]-6-oxo-1,6-dihydropyridazine-3-carboxamide] yielded an IC50 of less than 1 µM.

For the compound `COc1cccc(-n2cc(C(=O)N[C@H](C)c3cccc(C(F)(F)CO)c3F)ccc2=O)c1F` [Example 186, N-[(1R)-1-[3-(1,1-difluoro-2-hydroxy-ethyl)-2-fluoro-phenyl]ethyl]-1-(2-fluoro-3-methoxyphenyl)-6-oxo-pyridine-3-carboxamide], the half-maximal inhibitory concentration (IC50) is less than 1 µM. The compound `C[C@@H](NC(=O)c1ccc(=O)n(-c2ccc3c(c2)COC3)n1)c1cc(N)cc(C(F)(F)F)c1` [Example 208, N-[(1R)-1-[3-amino-5-(trifluoromethyl)phenyl]ethyl]-1-(1,3-dihydroisobenzofuran-5-yl)-6-oxo-pyridazine-3-carboxamide] came in with an IC50 of less than 1 µM. The compound `CNCc1ccc(F)cc1-c1ncc([C@@H](C)NC(=O)c2ccc(=O)n(-c3ccccc3F)n2)s1` [Example 396, N-[(1R)-1-[2-[5-fluoro-2-(methylaminomethyl)phenyl]thiazol-5-yl]ethyl]-1-(2-fluorophenyl)-6-oxo-pyridazine-3-carboxamide] showed a concentration for half-maximal inhibition (IC50) of less than 1 µM.

The compound `COCC(F)(F)c1cccc([C@@H](C)NC(=O)c2ccc(=O)n(-c3ccccc3F)n2)c1F` [Example 242, N-[(1R)-1-[3-(1,1-difluoro-2-methoxy-ethyl)-2-fluoro-phenyl]ethyl]-1-(2-fluorophenyl)-6-oxo-pyridazine-3-carboxamide] displayed an IC50 of less than 1 µM.

For `C[C@@H](NC(=O)C1=NN(c2ccccc2)C(=O)CC1)c1cc(N)cc(C(F)(F)F)c1` [Example 264, N-[(1R)-1-[3-amino-5-(trifluoromethyl)phenyl]ethyl]-6-oxo-1-phenyl-4,5-dihydropyridazine-3-carboxamide], the 50% inhibitory concentration (IC50) was less than 1 µM. The compound `C[C@@H](NC(=O)c1ccc(=O)n(Cc2ccccn2)n1)c1cc(N)cc(C(F)(F)F)c1` [Example 225, N-[(1R)-1-[3-amino-5-(trifluoromethyl)phenyl]ethyl]-6-oxo-1-(2-pyridylmethyl)pyridazine-3-carboxamide] had a half-inhibitory concentration (IC50) of less than 1 µM.

Compound `CNCc1ccc(F)cc1-c1ccc([C@@H](C)NC(=O)c2ccc(=O)n(-c3ccccc3F)n2)s1` [Example 286, N-[(1R)-1-[5-[5-fluoro-2-(methylaminomethyl)phenyl]-2-thienyl]ethyl]-1-(2-fluorophenyl)-6-oxo-pyridazine-3-carboxamide] displayed an IC50 of less than 1 µM. `C[C@@H](NC(=O)c1ccc(=O)n(-c2cccc(-c3cnnn3C)c2)n1)c1cc(N)cc(C(F)(F)F)c1` [Example 369, N-[(1R)-1-[3-amino-5-(trifluoromethyl)phenyl]ethyl]-1-[3-(3-methyltriazol-4-yl)phenyl]-6-oxo-pyridazine-3-carboxamide] yielded an IC50 of less than 1 µM. `C[C@@H](NC(=O)c1ccc(=O)n(-c2cccc(-c3nnnn3C)c2)n1)c1cc(N)cc(C(F)(F)F)c1` [Example 347, N-[(1R)-1-[3-amino-5-(trifluoromethyl)phenyl]ethyl]-1-[3-(1-methyltetrazol-5-yl)phenyl]-6-oxo-pyridazine-3-carboxamide]: the half-inhibitory concentration (IC50) is less than 1 µM. In turn, `C[C@@H](NC(=O)c1ccc(=O)n(-c2cccnc2F)n1)c1ccc(-c2cc(F)ccc2CN(C)C)s1` [Example 403, N-[(1R)-1-(5-{2-[(dimethylamino)methyl]-5-fluorophenyl}thiophen-2-yl)ethyl]-1-(2-fluoropyridin-3-yl)-6-oxo-1,6-dihydropyridazine-3-carboxamide] came in with an IC50 of less than 1 µM. The result for `C[C@@H](NC(=O)c1ccc(=O)n(-c2ccccc2F)n1)c1cc(N)cc(C(F)(F)F)n1` [Example 395, N-[(1R)-1-[4-amino-6-(trifluoromethyl)-2-pyridyl]ethyl]-1-(2-fluorophenyl)-6-oxo-pyridazine-3-carboxamide] reads 1 to 10 µM; that for `C[C@@H](NC(=O)c1ccc(=O)n(-c2ccccc2F)c1)c1cccc(C(F)(F)CO)c1F` [Example 181, N-[(1R)-1-[3-(1,1-difluoro-2-hydroxy-ethyl)-2-fluoro-phenyl]ethyl]-1-(2-fluorophenyl)-6-oxo-pyridine-3-carboxamide], less than 1 µM. Take `C[C@@H](NC(=O)c1ccc(=O)n(-c2ccc(OC(F)F)cc2)n1)c1cc(N)cc(C(F)(F)F)c1` [Example 198, N-[(1R)-1-[3-amino-5-(trifluoromethyl)phenyl]ethyl]-1-[4-(difluoromethoxy)phenyl]-6-oxo-pyridazine-3-carboxamide]: the IC50 was less than 1 µM.
